# Results taken from patent publication US20150010928A1, “MEANS AND METHODS FOR ASSESSING AN ENDOCRINE DISEASE OR DISORDER” (priority 2012, published 2015).
# Counter-ions that a name gives are not always drawn. Marks after values point to notes of the source that are not given here.
# Key:
# [1] = test system: female rats; assay: Plasma metabolite profiling (GC-MS, LC-MS, SPE-LC-MS) in female rats dosed once daily over 28 days (OECD 407); type: in vivo, rat
# Procedure: Each dose group in the studies consisted of five rats per sex. Additional groups of each 5 male and female animals served as controls. […] All animals of the animal population were kept under the same constant temperature (20-24±3° C.) and the same constant humidity (30-70%). The animals of the animal population were fed ad libitum. The food to be used was essentially free of chemical or microbial contaminants. Drinking water was also offered ad libitum. Accordingly, the water was free of chemical and microbial contaminants as laid down in the European Drinking Water Directive 98/83/EG. The illumination period was 12 hours light followed by 12 hours darkness (12 hours light, from 6:00 to 18:00, and 12 hours darkness, from 18:00 to 6:00). […] The test substances (compounds) in the Tables 1 to 17 below were dosed and administered as described in the Table 18.
# In the morning of day 7, 14, and 28, blood was taken from the retroorbital venous plexus from fasted anaesthetized animals. From each animal, 1 ml of blood was collected with EDTA as anticoagulant. The samples were centrifuged for generation of plasma. All plasma samples were covered with a N2 atmosphere and then stored at −80° C. until analysis.
# For mass spectrometry-based metabolite profiling analyses plasma samples were extracted and a polar and a non-polar (lipid) fraction was obtained. For GC-MS analysis, the non-polar fraction was treated with methanol under acidic conditions to yield the fatty acid methyl esters. Both fractions were further derivatised with O-methyl-hydroxyamine hydrochloride and pyridine to convert Oxogroups to O-methyloximes and subsequently with a silylating agent before analysis. In LC-MS analysis, both fractions were reconstituted in appropriate solvent mixtures. HPLC was performed by gradient elution on reversed phase separation columns. Mass spectrometric detection which allows target and high sensitivity MRM (Multiple Reaction Monitoring) profiling in parallel to a full screen analysis was applied as described in WO2003073464.
# Steroids and their metabolites were measured by online SPE-LC-MS (Solid phase extraction-LC-MS).
# Following comprehensive analytical validation steps, the data for each analyte were normalized against data from pool samples. These samples were run in parallel through the whole process to account for process variability. The significance of treatment group values specific for sex, treatmentduration and metabolite was determined by comparing means of the treated groups to the means of the respective untreated control groups using WELCH-test and quantified with treatment ratios versus control and p-values.
# The identification of the most important biomarkers per toxicity pattern was done by a ranking of the analytes in the tables below. Therefore the metabolic changes in reference treatments of a given pattern (shown in the table) were compared with changes of the same metabolite in other unrelated treatments. […] The maximum absolute value of the respective TVALUE was taken to indicate the most important metabolite for the pattern.
# [2] = test system: male rats; assay: Plasma metabolite profiling (GC-MS, LC-MS, SPE-LC-MS) in male rats dosed once daily over 28 days (OECD 407); type: in vivo, rat; settings: high dose; for Cholesterol / Choline plasmalogen No 02 / Lignoceric acid (C24:0) / Sphingomyelin (d18:1, C16:0) / Sphingomyelin (d18:2, C16:0) / erythro-Sphingosine (d18:1): Table 14b
# How it was run: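 Metabolites were measured by GC-MS (derivatised) and reversed-phase LC-MS, with steroids by online SPE-LC-MS, in plasma drawn from fasted rats on days 7, 14 and 28 of once-daily dosing (5/sex/group). Values are ratios versus sex-matched untreated controls, normalized to pool samples, with Welch-test p-values.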
# [3] = female rats, plasma, high dose, day 7
# [4] = female rats, plasma, high dose, day 14
# [5] = female rats, plasma, high dose, day 28
molecule,measurement,setting,value
O=C(c1ccc(OCCN2CCCCC2)cc1)c1c(-c2ccc(O)cc2)sc2cc(O)ccc12 [Raloxifene Hydrochloride],"Glycine, ratio versus control",[1]; [3],1.53 *
same,"Lysine, ratio versus control",[1]; [3],0.8 *
same,"Lysophosphatidylcholine (C17:0), ratio versus control",[1]; [3],0.74 *
same,"Phosphatidylcholine (C18:0, C20:3), ratio versus control",[1]; [3],0.73 *
same,"Phosphatidylcholine (C18:0, C22:6), ratio versus control",[1]; [3],0.87 *
same,"Proline, ratio versus control",[1]; [3],1.16 *
same,"TAG (C16:0, C18:2), ratio versus control",[1]; [3],2.05 *
same,"TAG (C18:2, C18:3), ratio versus control",[1]; [3],1.84 *
same,"TAG (DAG-Fragment), ratio versus control",[1]; [3],1.8 *
same,"TAG No 059, ratio versus control",[1]; [3],1.61 *
same,"Thyroxine (T4), ratio versus control",[1]; [3],1.36^
same,"Coenzyme Q9, ratio versus control",[1]; [4],1.29 *
same,"Glycine, ratio versus control",[1]; [4],1.51 *
same,"Lysine, ratio versus control",[1]; [4],0.61 *
same,"Lysophosphatidylcholine (C17:0), ratio versus control",[1]; [4],0.72 *
same,"Phosphatidylcholine (C16:0, C20:5), ratio versus control",[1]; [4],1.25 *
same,"Phosphatidylcholine (C18:0, C20:3), ratio versus control",[1]; [4],0.86 *
same,"Phosphatidylcholine (C18:0, C22:6), ratio versus control",[1]; [4],0.85 *
same,"Proline, ratio versus control",[1]; [4],1.2 *
same,"TAG (C16:0, C18:2), ratio versus control",[1]; [4],1.27 *
same,"TAG (C18:2, C18:3), ratio versus control",[1]; [4],1.31 *
same,"TAG (DAG-Fragment), ratio versus control",[1]; [4],1.4 *
same,"TAG No 059, ratio versus control",[1]; [4],1.47 *
same,"Thyroxine (T4), ratio versus control",[1]; [4],2.5 *
same,"Coenzyme Q9, ratio versus control",[1]; [5],1.31 *
same,"Glycine, ratio versus control",[1]; [5],1.4 *
same,"Lysine, ratio versus control",[1]; [5],0.81 *
same,"Lysophosphatidylcholine (C17:0), ratio versus control",[1]; [5],0.72 *
same,"Phosphatidylcholine (C18:0, C20:3), ratio versus control",[1]; [5],0.81 *
same,"Phosphatidylcholine (C18:0, C22:6), ratio versus control",[1]; [5],0.72 *
same,"TAG (C16:0, C18:2), ratio versus control",[1]; [5],1.95 *
same,"TAG (C18:2, C18:3), ratio versus control",[1]; [5],1.64 *
same,"TAG (DAG-Fragment), ratio versus control",[1]; [5],1.76 *
same,"TAG No 059, ratio versus control",[1]; [5],1.61 *
same,"Thyroxine (T4), ratio versus control",[1]; [5],1.57 *
same,"Coenzyme Q9, ratio versus control","[1]; rat, in vivo",1.18 *
same,"Proline, ratio versus control","[1]; rat, in vivo",1.14 *
same,Cholesterol,[2]; m7,0.44
same,Choline plasmalogen No 02,[2]; m7,0.67
same,Lignoceric acid (C24:0),[2]; m7,0.45
same,"Sphingomyelin (d18:1, C16:0)",[2]; m7,0.52
same,"Sphingomyelin (d18:2, C16:0)",[2]; m7,0.82
same,erythro-Sphingosine (d18:1),[2]; m7,0.38
same,Cholesterol,[2]; m14,0.47
same,Choline plasmalogen No 02,[2]; m14,0.69
same,Lignoceric acid (C24:0),[2]; m14,0.39
same,"Sphingomyelin (d18:1, C16:0)",[2]; m14,0.62
same,"Sphingomyelin (d18:2, C16:0)",[2]; m14,0.78
same,erythro-Sphingosine (d18:1),[2]; m14,0.49
same,Cholesterol,[2]; m28,0.63
same,Choline plasmalogen No 02,[2]; m28,0.65
same,Lignoceric acid (C24:0),[2]; m28,0.64
same,"Sphingomyelin (d18:1, C16:0)",[2]; m28,0.65
same,"Sphingomyelin (d18:2, C16:0)",[2]; m28,0.63
same,erythro-Sphingosine (d18:1),[2]; m28,0.57
"ACTH: adrenocorticotropin (ACTH) produced in the adenohypophysis of the pituitary gland (SYSMEHFRWGKPVGKKRRPVKVYPNGAEDESAEAFPLEF; Corticotropin; UniProt P01189 138-176, looked up)","3-Hydroxybutyrate, ratio versus control",[1]; [5],0.85 *
same,"5-Oxoproline, ratio versus control",[1]; [5],1.05 *
same,"18-Hydroxy-11-deoxycorticosterone, ratio versus control",[1]; [5],0.69 *
same,"21-Hydroxyprogesterone (11-Deoxycorticosterone), ratio versus control",[1]; [5],0.31 *
same,"Biotin, ratio versus control",[1]; [5],0.7 *
same,"Choline plasmalogen No 03, ratio versus control",[1]; [5],0.77 *
same,"Citrate, ratio versus control",[1]; [5],0.92 *
same,"Corticosterone, ratio versus control",[1]; [5],0.67 *
same,"Ketoleucine, ratio versus control",[1]; [5],0.76 *
same,"Lactate, ratio versus control",[1]; [5],0.68 *
same,"Lysophosphatidylcholine (C18:2), ratio versus control",[1]; [5],1.06 *
same,"Lysophosphatidylcholine (C20:4), ratio versus control",[1]; [5],1.11 *
same,"Malate, ratio versus control",[1]; [5],0.76 *
same,"Mannose, ratio versus control",[1]; [5],1.04 *
same,"TAG No 059, ratio versus control",[1]; [5],1.62 *
same,"Tyrosine, ratio versus control",[1]; [5],1.26 *
same,"alpha-Tocopherol, ratio versus control",[1]; [5],0.95 *
same,"3,4-Dihydroxyphenylalanine (DOPA), ratio versus control","[2]; male rats, plasma, day 28",0.86 *
same,"3-Hydroxybutyrate, ratio versus control","[2]; male rats, plasma, day 28",0.65 *
same,"18-Hydroxy-11-deoxycorticosterone, ratio versus control","[2]; male rats, plasma, day 28",0.43 *
same,"21-Hydroxyprogesterone (11-Deoxycorticosterone), ratio versus control","[2]; male rats, plasma, day 28",0.18 *
same,"Biotin, ratio versus control","[2]; male rats, plasma, day 28",0.64 *
same,"Citrate, ratio versus control","[2]; male rats, plasma, day 28",0.82 *
same,"Corticosterone, ratio versus control","[2]; male rats, plasma, day 28",0.42 *
same,"Ketoleucine, ratio versus control","[2]; male rats, plasma, day 28",0.81 *
same,"Lysophosphatidylethanolamine (C22:5), ratio versus control","[2]; male rats, plasma, day 28",1.22 *
same,"Phosphatidylcholine No 04, ratio versus control","[2]; male rats, plasma, day 28",0.8 *
same,"Progesterone, ratio versus control","[2]; male rats, plasma, day 28",0.14 *
same,"Urea, ratio versus control","[2]; male rats, plasma, day 28",1.28 *
C#C[C@]1(OC(C)=O)CC[C@H]2[C@@H]3CCC4=CC(=O)CC[C@@H]4[C@H]3CC[C@@]21C [Norethindrone acetate],Cholesterol,"[1]; f7, high dose, Table 14a",0.17 *
same,Choline plasmalogen No 02,"[1]; f7, high dose, Table 14a",0.3 *
same,Lignoceric acid (C24:0),"[1]; f7, high dose, Table 14a",0.27^
same,"Sphingomyelin (d18:1, C16:0)","[1]; f7, high dose, Table 14a",0.12 *
same,"Sphingomyelin (d18:2, C16:0)","[1]; f7, high dose, Table 14a",0.19 *
same,erythro-Sphingosine (d18:1),"[1]; f7, high dose, Table 14a",0.03 *
same,"Alanine, ratio versus control","[2]; male rats, plasma, day 7",0.88 *
same,"Androstenedione, ratio versus control","[2]; male rats, plasma, day 7",0.42 *
same,"Cholesterol, ratio versus control","[2]; male rats, plasma, day 7",0.28 *
same,"Glycine, ratio versus control","[2]; male rats, plasma, day 7",0.86 *
same,"Heptadecanoic acid (C17:0), ratio versus control","[2]; male rats, plasma, day 7",0.56 *
same,"Testosterone, ratio versus control","[2]; male rats, plasma, day 7",0.59 *
same,"Threonine, ratio versus control","[2]; male rats, plasma, day 7",0.88 *
same,"Uric acid, ratio versus control","[2]; male rats, plasma, day 7",0.7 *
same,"alpha-Tocopherol, ratio versus control","[2]; male rats, plasma, day 7",0.32 *
